Tested on: NOMO1
Experiment: cell viability relative to DMSO control; higher = less cytotoxic
Conditions: 48 h
Method in brief: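 Library compounds in DMSO were pin-dosed into 1536-well plates (5 μl) holding NOMO1 or SEM (500 cells/well) or P12-Ichikawa (1000 cells/well) leukemia cells, across an 11-point threefold series of 47 μM to 0.79 nM. Each cell line had been adapted for at least four passages in each medium. CellTiter-Glo One luminescence was read after 48 h at 37°C. Viability is the per-plate percentage relative to DMSO wells, with cell-free wells as background.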

[1] = HPLM + 10% dialyzed FBS, 0.000781 µM
[2] = HPLM + 10% dialyzed FBS, 0.00234 µM
[3] = HPLM + 10% dialyzed FBS, 0.00702 µM
[4] = HPLM + 10% dialyzed FBS, 0.0211 µM
[5] = HPLM + 10% dialyzed FBS, 0.0632 µM
[6] = HPLM + 10% dialyzed FBS, 0.19 µM
[7] = HPLM + 10% dialyzed FBS, 0.569 µM
[8] = HPLM + 10% dialyzed FBS, 1.71 µM
[9] = HPLM + 10% dialyzed FBS, 5.12 µM
[10] = HPLM + 10% dialyzed FBS, 15.4 µM
[11] = HPLM + 10% dialyzed FBS, 46.1 µM
[12] = RPMI 5 mM glucose + 10% FBS, 0.000781 µM
[13] = RPMI 5 mM glucose + 10% FBS, 0.00234 µM
[14] = RPMI 5 mM glucose + 10% FBS, 0.00702 µM
[15] = RPMI 5 mM glucose + 10% FBS, 0.0211 µM
[16] = RPMI 5 mM glucose + 10% FBS, 0.0632 µM
[17] = RPMI 5 mM glucose + 10% FBS, 0.19 µM
[18] = RPMI 5 mM glucose + 10% FBS, 0.569 µM
[19] = RPMI 5 mM glucose + 10% FBS, 1.71 µM
[20] = RPMI 5 mM glucose + 10% FBS, 5.12 µM
[21] = RPMI 5 mM glucose + 10% FBS, 15.4 µM
[22] = RPMI 5 mM glucose + 10% FBS, 46.1 µM
[23] = RPMI 5 mM glucose + 10% dialyzed FBS, 0.000781 µM
[24] = RPMI 5 mM glucose + 10% dialyzed FBS, 0.00234 µM
[25] = RPMI 5 mM glucose + 10% dialyzed FBS, 0.00702 µM
[26] = RPMI 5 mM glucose + 10% dialyzed FBS, 0.0211 µM
[27] = RPMI 5 mM glucose + 10% dialyzed FBS, 0.0632 µM
[28] = RPMI 5 mM glucose + 10% dialyzed FBS, 0.19 µM
[29] = RPMI 5 mM glucose + 10% dialyzed FBS, 0.569 µM
[30] = RPMI 5 mM glucose + 10% dialyzed FBS, 1.71 µM
[31] = RPMI 5 mM glucose + 10% dialyzed FBS, 5.12 µM
[32] = RPMI 5 mM glucose + 10% dialyzed FBS, 15.4 µM
[33] = RPMI 5 mM glucose + 10% dialyzed FBS, 46.1 µM

Compound	cell viability [1] [%]	cell viability [2] [%]	cell viability [3] [%]	cell viability [4] [%]	cell viability [5] [%]	cell viability [6] [%]	cell viability [7] [%]	cell viability [8] [%]	cell viability [9] [%]	cell viability [10] [%]	cell viability [11] [%]	cell viability [12] [%]	cell viability [13] [%]	cell viability [14] [%]	cell viability [15] [%]	cell viability [16] [%]	cell viability [17] [%]	cell viability [18] [%]	cell viability [19] [%]	cell viability [20] [%]	cell viability [21] [%]	cell viability [22] [%]	cell viability [23] [%]	cell viability [24] [%]	cell viability [25] [%]	cell viability [26] [%]	cell viability [27] [%]	cell viability [28] [%]	cell viability [29] [%]	cell viability [30] [%]	cell viability [31] [%]	cell viability [32] [%]	cell viability [33] [%]
Nc1ccc(C(=O)c2cc3c(ccc4ccccc43)[nH]2)cc1	120	121	123	129	113	112	117	110	89.5	40.5	26.6	118	112	110	117	121	116	101	109	99.2	56.4	18.9											
CN(CCOc1ccc(CC2SC(=O)NC2=O)cc1)c1ccccn1 (stereo not drawn)												110	113	121	108	115	117	113	112	127	113	109											
COCCn1c2c([n+](Cc3cnccn3)c1C)C(=O)c1ccccc1C2=O												127	123	113	112	104	35.3	7.45	6.58	6.62	4.16	1.59											
CC1(C)CC\C2=C(/O1)C3=C(C=CC=C3)C(=O)C2=O	123	112	113	101	112	104	103	118	99	98.4	4.14	113	104	115	103	108	111	90.9	107	108	88.2	5.12	109	97.4	109	113	103	102	101	99.9	100	96.3	6.57
CNC(=O)c1ccc2c(c1)NC(=O)/C2=C(\Nc1cccc(CN(C)C)c1)c1ccccc1	85.5	109	103	100	99.9	106	95	91.9	45.9	63.4	0.559	93.7	84.5	93.6	94.9	93.1	93.3	95.1	87.2	80	66.5	1.26	74.6	91.7	90.5	90.7	80	98.9	90.3	89.1	75.9	57.7	1.81
NCCCC(N)(C(=O)O)C(F)F (stereo not drawn)												123	137	122	125	132	111	125	120	109	107	95.1	121	112	115	113	126	112	108	125	100	111	90.1
CCCN[C@H]1CCc2nc(N)sc2C1	105	102	104	116	95.4	102	119	112	123	118	114	86.8	84.8	96.6	89.3	92.6	90.6	85.3	96.2	96.7	90.5	89.3	83.9	93.1	104	98.8	106	102	101	107	87.1	109	82.4
CN1C(=O)/C(=C(NC2=CC=C(I)C=C2F)\C3=C1\N=C/N(C[C@@H](O)CO)C3=O)F	68.9	64.9	72.1	58.8	48.5	48.8	41.3	33.7	30.2	36.2	26.4	69.9	77.6	78.7	52.5	48	45.7	31.1	34.6	30.7	37.8	32.7	69.2	60	71.1	46	48.9	41.7	37.5	33.7	32.7	31.8	29.5
